As a reminder, the pEC50 is the EC50 on a negative log10 scale, so that one unit is a factor of ten. The low end stands for a high EC50, the high end for a low EC50.

The target of the assay is T1, human ferroportin (Homo sapiens, UniProt Q9NP59).
T1 construct: luciferase reporter (read with the Nano-Glo Luciferase Assay System); expressed in transfected cells; host or cells: CHO cells, stably transfected, expression induced with doxycycline
T1 sequence (Q9NP59 1-571): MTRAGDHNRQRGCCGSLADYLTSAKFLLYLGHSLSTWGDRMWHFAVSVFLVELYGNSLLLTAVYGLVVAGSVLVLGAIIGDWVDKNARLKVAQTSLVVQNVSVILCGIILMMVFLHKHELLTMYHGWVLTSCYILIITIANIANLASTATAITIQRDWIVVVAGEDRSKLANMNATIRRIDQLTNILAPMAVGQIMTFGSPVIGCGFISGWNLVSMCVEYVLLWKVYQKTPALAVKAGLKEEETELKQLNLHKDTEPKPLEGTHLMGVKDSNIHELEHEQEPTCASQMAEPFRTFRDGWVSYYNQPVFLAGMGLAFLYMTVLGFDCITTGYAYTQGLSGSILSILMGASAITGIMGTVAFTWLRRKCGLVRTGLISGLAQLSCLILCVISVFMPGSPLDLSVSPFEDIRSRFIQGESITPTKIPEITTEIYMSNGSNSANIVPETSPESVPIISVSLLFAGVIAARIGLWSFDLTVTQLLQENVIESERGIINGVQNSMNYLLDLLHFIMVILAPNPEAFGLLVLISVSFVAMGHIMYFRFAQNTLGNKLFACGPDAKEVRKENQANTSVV
The assay can be described thus: Biological in-vitro ferroportin internalization assay (luciferase reporter). Type of assay: cell-based. Conditions: average pEC50; stably-transfected CHO cell line expressing human ferroportin tagged to a luciferase reporter; 6 h incubation with test compound. In short, it runs like this:
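Stably transfected CHO cells expressing luciferase-tagged human ferroportin, plated 24 h with ferric ammonium citrate and induced with doxycycline for 24 h. Compounds incubated 6 h, then luciferase activity measured by Nano-Glo; average pEC50 reported.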
On the technique in general: In a reporter assay the amount or activity of a reporter protein is the signal.
With `COc1cc(-c2nc3c(c(N(C)CC(=O)NC(C)(C)C)n2)CCC3)ncc1C` [Compound 192, N-tert-butyl-2-{[2-(4-methoxy-5-methylpyridin-2-yl)-5H,6H,7H-cyclopenta[d]pyrimidin-4-yl](methyl)amino}acetamide], the pEC50 was 6.5. The result for `CCn1cnc(-c2nc3c(c(N(C)CC(=O)NC(C)(C)C)n2)CCC3)c1` [Compound 193, N-tert-butyl-2-{[2-(1-ethyl-1H-imidazol-4-yl)-5H,6H,7H-cyclopenta[d]pyrimidin-4-yl](methyl)amino}acetamide] reads 6.8; that for `CCn1cncc1-c1nc2c(c(N(C)CC(=O)NC(C)(C)C)n1)CCC2` [Compound 194, N-tert-butyl-2-{[2-(1-ethyl-1H-imidazol-5-yl)-5H,6H,7H-cyclopenta[d]pyrimidin-4-yl](methyl)amino}acetamide], 5.4. The result for `CN(CC(=O)NC(C)(C)C)c1nc(-c2cn(CCO)cn2)nc2c1CCC2` [Compound 195, N-tert-butyl-2-({2-[1-(2-hydroxyethyl)-1H-imidazol-4-yl]-5H,6H,7H-cyclopenta[d]pyrimidin-4-yl}(methyl)amino)acetamide] reads 6.9; that for `CN(CC(=O)NC(C)(C)C)c1nc(-c2cncn2CCO)nc2c1CCC2` [Compound 196, N-tert-butyl-2-({2-[1-(2-hydroxyethyl)-1H-imidazol-5-yl]-5H,6H,7H-cyclopenta[d]pyrimidin-4-yl}(methyl)amino)acetamide], 5.6; that for `COc1ncc(NC(=O)CN(C)c2nc(-c3cc(OCCO)ccn3)nc3c2CCC3)cn1` [Compound 197, 2-({2-[4-(2-hydroxyethoxy)pyridin-2-yl]-5H,6H,7H-cyclopenta[d]pyrimidin-4-yl}(methyl)amino)-N-(2-methoxypyrimidin-5-yl)acetamide], 7.4. The result for `CN(CC(=O)Nc1ccc(F)cc1)c1nc(-c2cc(OCCO)ccn2)nc2c1CCC2` [Compound 198, N-(4-fluorophenyl)-2-({2-[4-(2-hydroxyethoxy)pyridin-2-yl]-5H,6H,7H-cyclopenta[d]pyrimidin-4-yl}(methyl)amino)acetamide] reads 8.1; that for `Cc1ccc(NC(=O)CN(C)c2nc(-c3cc(OCCO)ccn3)nc3c2CCC3)cn1` [Compound 199, 2-({2-[4-(2-hydroxyethoxy)pyridin-2-yl]-5H,6H,7H-cyclopenta[d]pyrimidin-4-yl}(methyl)amino)-N-(6-methylpyridin-3-yl)acetamide], 7.9. For `COc1ccnc(-c2nc3c(c(N(C)CC(=O)Nc4ccc(C)nc4)n2)CCC3)c1` [Compound 200, 2-{[2-(4-methoxypyridin-2-yl)-5H,6H,7H-cyclopenta[d]pyrimidin-4-yl](methyl)amino}-N-(6-methylpyridin-3-yl)acetamide], the negative logarithm of the EC50 (pEC50) worked out at 7.6. With `COc1ccc(NC(=O)CN(C)c2nc(-c3cn(C)cn3)nc3c2CCC3)cn1` [Compound 201, N-(6-methoxypyridin-3-yl)-2-{methyl[2-(1-methyl-1H-imidazol-4-yl)-5H,6H,7H-cyclopenta[d]pyrimidin-4-yl]amino}acetamide] the figure was 7.4; with `CN(CC(=O)Nc1ccc(F)cc1)c1nc(-c2cn(C)cn2)nc2c1CCC2` [Compound 202, N-(4-fluorophenyl)-2-{methyl[2-(1-methyl-1H-imidazol-4-yl)-5H,6H,7H-cyclopenta[d]pyrimidin-4-yl]amino}acetamide], 7.5. With `COc1ccc(N2CCN(c3nc(-c4ccccn4)nc4c3CCC4)CCC2=O)cc1` [Compound 203, 4-(4-methoxyphenyl)-1-[2-(pyridin-2-yl)-5H,6H,7H-cyclopenta[d]pyrimidin-4-yl]-1,4-diazepan-5-one] the figure was 6.3; with `C[C@H](C(=O)NC1(C)CC1)N(C)c1nc(-c2ccccn2)nc2c1CCC2` [Compound 204, (2R)-2-{methyl[2-(pyridin-2-yl)-5H,6H,7H-cyclopenta[d]pyrimidin-4-yl]amino}-N-(1-methylcyclopropyl)propanamide], 6.9.

(Values after patent US11746100B2 (GLOBAL BLOOD THERAPEUTICS, INC., priority 2020, dated 2023).)
